Test results published in ChEMBL document CHEMBL3734726, “An abietane diterpene from Salvia cuspidata and some new derivatives are active against Trypanosoma cruzi” (Bioorg Med Chem Lett, 2015).
Values after ≈ are worked out from the molar mass of the structure shown. Active and inactive are the calls of the source. The calls are words filed in the database; no cut-off is given here.

Assays:
Trypanosoma cruzi [1] = experiment: Antitrypanosomal activity against epimastigote stage of Trypanosoma cruzi Dm28c assessed as parasite viability at 5 ug/ml after 24 hrs by eosin exclusion based hemocytometry; assay type: functional
Trypanosoma cruzi [2] = experiment: Antitrypanosomal activity against epimastigote stage of Trypanosoma cruzi Dm28c assessed as parasite viability at 1 ug/ml after 24 hrs by eosin exclusion based hemocytometry; assay type: functional
[3] = Cytotoxicity against african green monkey Vero cells assessed as cell viability at 10 ug/ml after 24 hrs by eosin staining based microscopy; conditions: chlorocebus sabaeus, read-out: Activity
[4] = Cytotoxicity against african green monkey Vero cells assessed as cell viability at 2 ug/ml after 24 hrs by eosin staining based microscopy; conditions: chlorocebus sabaeus, read-out: Activity
Trypanosoma cruzi [5] = experiment: Antitrypanosomal activity against epimastigote stage of Trypanosoma cruzi Dm28c assessed as parasite viability at 10 ug/ml after 24 hrs by eosin exclusion based hemocytometry; assay type: functional
[6] = Cytotoxicity against african green monkey Vero cells assessed as cell viability at 1 ug/ml after 24 hrs by eosin staining based microscopy; conditions: chlorocebus sabaeus, read-out: Activity
[7] = Cytotoxicity against african green monkey Vero cells assessed as cell viability at 5 ug/ml after 24 hrs by eosin staining based microscopy; conditions: chlorocebus sabaeus, read-out: Activity
Trypanosoma cruzi [8] = experiment: Antitrypanosomal activity against epimastigote stage of Trypanosoma cruzi Dm28c assessed as parasite viability at 2 ug/ml after 24 hrs by eosin exclusion based hemocytometry; assay type: functional
Trypanosoma cruzi [9] = experiment: Antitrypanosomal activity against epimastigote stage of Trypanosoma cruzi Dm28c assessed as reduction in parasite viability at after 24 hrs by eosin exclusion based hemocytometry; assay type: functional, organism-based
Trypanosoma cruzi [10] = experiment: Trypanocidal activity against epimastigote stage of Trypanosoma cruzi Dm28c assessed as induction of vacuolization at 5 ug/ml after 48 hrs by lead citrate staining based microscopy; assay type: functional, organism-based

Row | SMILES | Parasite viability (Trypanosoma cruzi [1]) [%] | Parasite viability (Trypanosoma cruzi [2]) [%] | viability at 24 h, 10 ug/ml [3] [%] | viability at 24 h, 2 ug/ml [4] [%] | Parasite viability (Trypanosoma cruzi [5]) [%] | viability at 24 h, 1 ug/ml [6] [%] | viability at 24 h, 5 ug/ml [7] [%] | Parasite viability (Trypanosoma cruzi [8]) [%] | IC50 (Trypanosoma cruzi [9]) [µg/mL] | Activity (Trypanosoma cruzi [10])
1 | C=CCOC1=C(C(C)C)C(=O)C2=C(C1=O)[C@]13CCC[C@](C)(C(=O)OC1)[C@@H]3C=C2 | 29.5 | 85.5 | 85.5 | 99.6 | 18.3 | 99.8 | 99.1 | 65.5 | – | –
2 | CC(C)C1=C(O[Si](C)(C)C)C(=O)C2=C(C=C[C@@H]3[C@]24CCC[C@]3(C)C(=O)OC4)C1=O | 29.5 | 85.5 | 83.6 | 99.6 | 15.3 | 99.7 | 99.1 | 49.5 | 2 (≈ 4.82 µM) | –
3 | CC(C)C1=C(O)C(=O)C2=C(C=C[C@@H]3[C@]24CCC[C@]3(C)C(=O)OC4)C1=O | 49.7 | 99.2 | 88.4 | 99.5 | 16.3 | 99.2 | 98.8 | 76.4 | 5 (≈ 14.6 µM) | Active
4 | CC(=O)OC1=C(C(C)C)C(=O)C2=C(C1=O)[C@]13CCC[C@](C)(C(=O)OC1)[C@@H]3C=C2 | 39.5 | 99.2 | 92.4 | 99.7 | 16.3 | 99.8 | 99.2 | 89.5 | – | –
